Reference: paper PMC8222254, “Self-assembly of an anion receptor with metal-dependent kinase inhibition and potent in vitro anti-cancer properties” (Nature Communications, 2021)
Where “and” joins values, the source holds several entries; their conditions need not be identical. Equal values may be shown once. Read-outs that look alike come from different tables or passages of the source.

Assays:
Assay in all cases: Chemosensitivity, 96 h continuous exposure, MTT assay
Assay type in all cases: cell-based, human
H460 = settings: for IC50 / Selectivity indices relative to ARPE-19, Ratio + anion:no anion / Selectivity indices relative to MCF10A, Ratio + anion:no anion: H460; for Selectivity index (ARPE19): IC50 ARPE-19 / IC50 H460; for Selectivity index (MCF10A): IC50 MCF10A / IC50 H460; for Relative potency (+ anion to no anion), Ratio + anion:no anion: ratio of IC50, H460; for Selectivity indices relative to ARPE-19, Ratio + anion:no anion: ratio of SI (ARPE-19); for Selectivity indices relative to MCF10A, Ratio + anion:no anion: ratio of SI (MCF 10A)
How it was run: (§1)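 H460 lung and PSN1 pancreatic carcinoma lines, grown in RPMI-1640 with 10% FBS, were plated at 2 × 10^3 cells/well, dosed across a concentration range for 96 h, then given MTT for 4 h. Formazan absorbance at 540 nm gave IC50 values.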

HCT116 p53-/- = settings: for IC50 / Selectivity indices relative to ARPE-19, Ratio + anion:no anion / Selectivity indices relative to MCF10A, Ratio + anion:no anion: HCT116 p53-/-; for Selectivity index (ARPE19): IC50 ARPE-19 / IC50 HCT116 p53-/-; for Selectivity index (MCF10A): IC50 MCF10A / IC50 HCT116 p53-/-; for Relative potency (+ anion to no anion), Ratio + anion:no anion: ratio of IC50, HCT116 p53-/-; for Selectivity indices relative to ARPE-19, Ratio + anion:no anion: ratio of SI (ARPE-19); for Selectivity indices relative to MCF10A, Ratio + anion:no anion: ratio of SI (MCF 10A)
How it was run: (§2)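 Cells seeded at 2 × 10^3/well (GBM1 3 × 10^3/well) and left overnight at 37 °C, then exposed continuously for 96 h to a range of compound concentrations (final DMSO 0.2%). Viability read by MTT, absorbance at 540 nm; IC50 taken from dose-response curves as concentration reducing cell growth by 50%.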

HT-29 = settings: for Selectivity index (ARPE19): IC50 ARPE-19 / IC50 HT29; for Selectivity index (MCF10A): IC50 MCF10A / IC50 HT29; for Relative potency (+ anion to no anion), Ratio + anion:no anion: ratio of IC50, HT29; for Selectivity indices relative to ARPE-19, Ratio + anion:no anion: ratio of SI (ARPE-19); for Selectivity indices relative to MCF10A, Ratio + anion:no anion: ratio of SI (MCF 10A)
How it was run: as §2

PSN1 = settings: for Selectivity index (ARPE19): IC50 ARPE-19 / IC50 PSN1; for Selectivity index (MCF10A): IC50 MCF10A / IC50 PSN1; for IC50 / Selectivity indices relative to ARPE-19, Ratio + anion:no anion / Selectivity indices relative to MCF10A, Ratio + anion:no anion: PSN1; for Relative potency (+ anion to no anion), Ratio + anion:no anion: ratio of IC50, PSN1; for Selectivity indices relative to ARPE-19, Ratio + anion:no anion: ratio of SI (ARPE-19); for Selectivity indices relative to MCF10A, Ratio + anion:no anion: ratio of SI (MCF 10A)
How it was run: as §1

[1] = mean of replicates, read-out: Mean IC50
[2] = single replicate, read-out: IC50 values for each replicate
[3] = HT29, mean of replicates, read-out: Mean IC50
[4] = HT29, read-out: Mean IC50 values
[5] = HT-29, single replicate, read-out: IC50 values for each replicate

O=S(=O)([O-])[O-].[Cu+2].[Cu+2].[Cu+2].c1ccc(-c2csc(NCCN(CCNc3nc(-c4ccccn4)cs3)CCNc3nc(-c4ccccn4)cs3)n2)nc1.c1ccc(-c2csc(NCCN(CCNc3nc(-c4ccccn4)cs3)CCNc3nc(-c4ccccn4)cs3)n2)nc1 [[L2Cu3(SO4)]4+]
IC50 (H460; [1]): 252 nM | IC50 (H460; read-out: Mean IC50 values): 252 nM | IC50 (H460; [2]): 438 nM and 207 nM and 188 nM and 219 nM and 227 nM and 234 nM | Selectivity index (ARPE19) (H460): 477.42 | Selectivity index (MCF10A) (H460): 197.35 | Relative potency (+ anion to no anion), Ratio + anion:no anion (H460): 0.91 | Selectivity indices relative to ARPE-19, Ratio + anion:no anion (H460): 2.504 | Selectivity indices relative to MCF10A, Ratio + anion:no anion (H460): 1.129 | IC50 (HCT116 p53-/-; read-out: Mean IC50 values): 78 nM | IC50 (HCT116 p53-/-; [2]): 78 nM and 77 nM and 79 nM | Selectivity index (ARPE19) (HCT116 p53-/-): 1542.44 | Selectivity index (MCF10A) (HCT116 p53-/-): 637.59 | Relative potency (+ anion to no anion), Ratio + anion:no anion (HCT116 p53-/-): 0.57 | Selectivity indices relative to ARPE-19, Ratio + anion:no anion (HCT116 p53-/-): 4.015 | Selectivity indices relative to MCF10A, Ratio + anion:no anion (HCT116 p53-/-): 1.810 | IC50 (HT-29; [3]): 188 nM | IC50 (HT-29; [4]): 188 nM | IC50 (HT-29; [5]): 88 nM and 240 nM and 182 nM | Selectivity index (ARPE19) (HT-29): 639.95 | Selectivity index (MCF10A) (HT-29): 264.53 | Relative potency (+ anion to no anion), Ratio + anion:no anion (HT-29): 0.88 | Selectivity indices relative to ARPE-19, Ratio + anion:no anion (HT-29; HT29): 2.602 | Selectivity indices relative to MCF10A, Ratio + anion:no anion (HT-29; HT29): 1.173 | Selectivity index (ARPE19) (PSN1): 246.54 | Selectivity index (MCF10A) (PSN1): 101.91 | IC50 (PSN1; [1]): 488 nM | IC50 (PSN1; read-out: Mean IC50 values): 488 nM | IC50 (PSN1; [2]): 449 nM and 779 nM and 235 nM | Relative potency (+ anion to no anion), Ratio + anion:no anion (PSN1): 0.0756 | Selectivity indices relative to ARPE-19, Ratio + anion:no anion (PSN1): 30.213 | Selectivity indices relative to MCF10A, Ratio + anion:no anion (PSN1): 13.624

O=P(O)(O)Oc1ccccc1.[Zn+2].[Zn+2].[Zn+2].c1ccc(-c2csc(NCCN(CCNc3nc(-c4ccccn4)cs3)CCNc3nc(-c4ccccn4)cs3)n2)nc1.c1ccc(-c2csc(NCCN(CCNc3nc(-c4ccccn4)cs3)CCNc3nc(-c4ccccn4)cs3)n2)nc1 [[L2Zn3(O3POPh)]4+]
IC50 (H460; [1]): 276 nM | IC50 (H460; read-out: Mean IC50 values): 276 nM | IC50 (H460; [2]): 263 nM and 517 nM and 187 nM and 138 nM | Selectivity index (ARPE19) (H460): 834.24 | Selectivity index (MCF10A) (H460): 189.68 | Relative potency (+ anion to no anion), Ratio + anion:no anion (H460): 0.77 | Selectivity indices relative to ARPE-19, Ratio + anion:no anion (H460): 1.910 | IC50 (HCT116 p53-/-; [1]): 85 nM | IC50 (HCT116 p53-/-; read-out: Mean IC50 values): 85 nM | IC50 (HCT116 p53-/-; [2]): 155 nM and 65 nM and 36 nM | Selectivity index (ARPE19) (HCT116 p53-/-): 2708.82 | Selectivity index (MCF10A) (HCT116 p53-/-): 615.92 | Relative potency (+ anion to no anion), Ratio + anion:no anion (HCT116 p53-/-): 1.18 | Selectivity indices relative to ARPE-19, Ratio + anion:no anion (HCT116 p53-/-): 1.240 | Selectivity indices relative to MCF10A, Ratio + anion:no anion (HCT116 p53-/-): 0.274 | IC50 (HT-29; [3]): 379 nM | IC50 (HT-29; [4]): 379 nM | IC50 (HT-29; [5]): 733 nM and 271 nM and 247 nM and 265 nM | Selectivity index (ARPE19) (HT-29): 607.52 | Selectivity index (MCF10A) (HT-29): 138.13 | Relative potency (+ anion to no anion), Ratio + anion:no anion (HT-29): 2.24 | Selectivity indices relative to ARPE-19, Ratio + anion:no anion (HT-29; HT29): 0.653 | Selectivity indices relative to MCF10A, Ratio + anion:no anion (HT-29; HT29): 0.144 | Selectivity index (ARPE19) (PSN1): 1338.66 | Selectivity index (MCF10A) (PSN1): 304.38 | IC50 (PSN1; [1]): 172 nM | IC50 (PSN1; read-out: Mean IC50 values): 172 nM | IC50 (PSN1; [2]): 90 nM and 171 nM and 256 nM | activity relative to [L2Zn3(PO4)]3+ or [L2Zn3]6+ (PSN1; PSN1 cell line, anion pre-encapsulated): significantly more active | Relative potency (+ anion to no anion), Ratio + anion:no anion (PSN1): 0.04 | Selectivity indices relative to ARPE-19, Ratio + anion:no anion (PSN1): 37.826 | Selectivity indices relative to MCF10A, Ratio + anion:no anion (PSN1): 8.367

CC(=O)[O-].CC(=O)[O-].CC(=O)[O-].O=P([O-])([O-])[O-].[Zn+2].[Zn+2].[Zn+2].c1ccc(-c2csc(NCCN(CCNc3nc(-c4ccccn4)cs3)CCNc3nc(-c4ccccn4)cs3)n2)nc1.c1ccc(-c2csc(NCCN(CCNc3nc(-c4ccccn4)cs3)CCNc3nc(-c4ccccn4)cs3)n2)nc1 [[L2Zn3(PO4)]3+]
IC50 (H460; [1]): 249 nM | IC50 (H460; read-out: Mean IC50 values): 249 nM | IC50 (H460; [2]): 241 nM and 263 nM and 265 nM and 226 nM | Selectivity index (ARPE19) (H460): 525.98 | Selectivity index (MCF10A) (H460): 57.92 | Relative potency (+ anion to no anion), Ratio + anion:no anion (H460): 0.69 | Selectivity indices relative to ARPE-19, Ratio + anion:no anion (H460): 1.204 | Selectivity indices relative to MCF10A, Ratio + anion:no anion (H460): 0.129 | IC50 (HCT116 p53-/-; read-out: Mean IC50 values): 78 nM | IC50 (HCT116 p53-/-; [2]): 61 nM and 91 nM and 64 nM | Selectivity index (ARPE19) (HCT116 p53-/-): 1679.10 | Selectivity index (MCF10A) (HCT116 p53-/-): 184.91 | Relative potency (+ anion to no anion), Ratio + anion:no anion (HCT116 p53-/-): 1.08 | Selectivity indices relative to ARPE-19, Ratio + anion:no anion (HCT116 p53-/-): 0.769 | Selectivity indices relative to MCF10A, Ratio + anion:no anion (HCT116 p53-/-): 0.082 | IC50 (HT-29; [3]): 214 nM | IC50 (HT-29; [4]): 214 nM | IC50 (HT-29; [5]): 91 nM and 254 nM and 236 nM and 228 nM and 262 nM | Selectivity index (ARPE19) (HT-29): 612.01 | Selectivity index (MCF10A) (HT-29): 67.40 | Relative potency (+ anion to no anion), Ratio + anion:no anion (HT-29): 1.27 | Selectivity indices relative to ARPE-19, Ratio + anion:no anion (HT-29; HT29): 0.658 | Selectivity indices relative to MCF10A, Ratio + anion:no anion (HT-29; HT29): 0.070 | Selectivity index (ARPE19) (PSN1): 19.60 | Selectivity index (MCF10A) (PSN1): 2.16 | IC50 (PSN1; [1]): 6680 nM | IC50 (PSN1; read-out: Mean IC50 values): 6680 nM | IC50 (PSN1; [2]): 6730 nM and 6480 nM and 6840 nM | Relative potency (+ anion to no anion), Ratio + anion:no anion (PSN1): 1.50 | Selectivity indices relative to ARPE-19, Ratio + anion:no anion (PSN1): 0.554 | Selectivity indices relative to MCF10A, Ratio + anion:no anion (PSN1): 0.059
